# Data reported in patent US8278293B2, “Diazo bicyclic Smac mimetics and the uses thereof” (The Regents of the University of Michigan, priority 2007, dated 2012).
# Where two headings read alike, the source gives them in different places.
# What was measured:
# [1] = test system: MDA-MB-231 human breast cancer cell line; experiment: Cell growth inhibition, WST-8 assay, MDA-MB-231; assay type: cell-based
# Description: (§1) The effect of the compounds of the present invention on the growth of various cancer cell lines was tested. Cells were seeded in 96-well flat bottom cell culture plates at a density of 3000 cells/well with a tested compound and incubated at 37° C. in an atmosphere of 95% air and 5% CO2 for 4 days. […] Dojindo Molecular Technologies, Inc., Gaithersburg, Md.). […] The absorbance of the samples was measured at 450 nm using a ULTRA Tecan Reader (Molecular Device). […] The ability of SM-406 to inhibit cell growth as a single agent was tested in the MDA-MB-231 breast cancer cell line, SK-OV-3 and OVCAR-4 ovarian cancer cell lines and SK-MeI-2 melanoma cancer cell line. Cells were treated for 4 days. Cell growth was determined using a WST-based assay.
# [2] = test system: SK-OV-3 ovarian cancer cell line; experiment: Cell growth inhibition, WST-8 assay, SK-OV-3; assay type: cell-based; settings: 4 days, WST-8, read-out: SK-OV-3 IC50
# Description: as §1
# [3] = target: XIAP BIR3 (Homo sapiens, UniProt P98170); experiment: Fluorescence polarization (FP) based competitive binding assay to XIAP BIR3; set-up: human XIAP (residues 241-356) fused to His-tag; His-tag; settings: FP binding, XIAP BIR3 30 nM, SM5F 5 nM
# [4] = Homo sapiens, MDA-MB-231, 96 h, 4 days, WST-8, read-out: MDA-MB-231 IC50
# Chain of XIAP BIR3 (P98170 241-356): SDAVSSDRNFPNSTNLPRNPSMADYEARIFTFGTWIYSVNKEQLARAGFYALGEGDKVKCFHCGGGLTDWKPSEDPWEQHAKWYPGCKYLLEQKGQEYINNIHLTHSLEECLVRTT
smiles,measurement,setting,value
CN[C@@H](C)C(=O)N[C@H]1CN(C(=O)Cc2ccccc2)CCC[C@H]2CC[C@@H](C(=O)NC(c3ccccc3)c3ccccc3)N2C1=O [SM-207],IC50,"[1]; 4 days, WST-8, listed as SH-207, read-out: MDA-MB-231 IC50",< 1 µM
same,IC50,"[1]; 4 days, WST-8, read-out: MDA-MB-231 IC50",< 10 µM
same,IC50,[2]; listed as SH-207,< 1 µM
same,IC50,[2],< 10 µM
same,IC50,[3],< 1 µM
CN[C@@H](C)C(=O)N[C@H]1CN(C(=O)C(C)C)CC[C@H]2CC[C@@H](C(=O)NC(c3ccc(F)cc3)c3ccc(F)cc3)N2C1=O [SM-209],IC50,[1]; [4],< 10 µM
same,IC50,"[2]; Homo sapiens, SK-OV-3, 96 h",< 10 µM
same,IC50,[3],< 1 µM
CN[C@@H](C)C(=O)N[C@H]1CN(C(=O)CC(C)C)CC[C@H]2CC[C@@H](C(=O)NC(c3ccc(F)cc3)c3ccc(F)cc3)N2C1=O [SM-210],IC50,[1]; [4],< 1 µM
same,IC50,"[2]; Homo sapiens, SK-OV-3, 96 h",< 1 µM
same,IC50,[3],< 1 µM
CCCN[C@@H](C)C(=O)N[C@H]1CN(C(=O)CC(C)C)CC[C@H]2CC[C@@H](C(=O)NC(c3ccccc3)c3ccccc3)N2C1=O [SM-211],IC50,[1]; [4],< 10 µM
same,IC50,"[2]; Homo sapiens, SK-OV-3, 96 h",< 10 µM
same,IC50,[3],< 1 µM
CC[C@H](NC)C(=O)N[C@H]1CN(C(=O)CC(C)C)CC[C@H]2CC[C@@H](C(=O)NC(c3ccccc3)c3ccccc3)N2C1=O [SM-212],IC50,[1]; [4],< 10 µM
same,IC50,"[2]; Homo sapiens, SK-OV-3, 96 h",< 10 µM
same,IC50,[3],< 1 µM
CC(C)CC(=O)N1CC[C@H]2CC[C@@H](C(=O)NC(c3ccccc3)c3ccccc3)N2C(=O)[C@@H](NC(=O)[C@H](C)NCCO)C1 [SM-213],IC50,[1]; [4],< 10 µM
same,IC50,"[2]; Homo sapiens, SK-OV-3, 96 h",< 10 µM
same,IC50,[3],< 1 µM
CN[C@@H](C)C(=O)N[C@H]1CNCC[C@H]2CC[C@@H](C(=O)NC(c3ccccc3)c3ccccc3)N2C1=O [SM-227],IC50,[1]; [4],< 10 µM
same,IC50,"[2]; Homo sapiens, SK-OV-3, 96 h",< 10 µM
CN[C@@H](C)C(=O)N[C@H]1CN(C(=O)CC(C)C)CC[C@H]2CC[C@@H](CN(Cc3ccccc3)C(C)=O)N2C1=O [SM-230],IC50,[1]; [4],< 100 µM
same,IC50,"[2]; Homo sapiens, SK-OV-3, 96 h",< 100 µM
same,IC50,[3],< 10 µM
CN[C@@H](C)C(=O)N[C@H]1CN(C(C)=O)CC[C@H]2CCC(C(=O)NC(c3ccccc3)c3ccccc3)N2C1=O (stereo partly shown) [SM-330],IC50,"[1]; Homo sapiens, MDA-MB-231, 96 h, read-out: MDA-MB-231 IC50 (μM)",< 1 µM
CN[C@@H](C)C(=O)N[C@H]1CN(C(=O)Cc2ccc(F)cc2)CC[C@H]2CCC(C(=O)NC(c3ccccc3)c3ccccc3)N2C1=O (stereo partly shown) [SM-350],IC50,[1]; [4],< 1 µM
same,IC50,"[2]; Homo sapiens, SK-OV-3, 96 h",< 1 µM
same,IC50,[3],< 1 µM
CN[C@@H](C)C(=O)N[C@H]1CN(C(=O)Cc2ccc(F)cc2F)CC[C@H]2CCC(C(=O)NC(c3ccccc3)c3ccccc3)N2C1=O (stereo partly shown) [SM-356],IC50,[1]; [4],< 1 µM
same,IC50,[3],< 1 µM
CN[C@@H](C)C(=O)N[C@H]1CN(C(=O)Cc2ccccc2)CC[C@H]2CC[C@@H](C(=O)NC3CCCc4ccccc43)N2C1=O (stereo partly shown) [SM-376],IC50,[1]; [4],< 1 µM
same,IC50,"[2]; Homo sapiens, SK-OV-3, 96 h",< 1 µM
same,IC50,[3],< 0.1 µM
CN[C@@H](C)C(=O)N[C@H]1CN(C(=O)Cc2ccc(F)cc2)CC[C@H]2CC[C@@H](C(=O)NC3CCCc4ccccc43)N2C1=O (stereo partly shown) [SM-377],IC50,[1]; [4],< 1 µM
same,IC50,"[2]; Homo sapiens, SK-OV-3, 96 h",< 1 µM
same,IC50,[3],< 0.1 µM
CN[C@@H](C)C(=O)N[C@H]1CN(C(=O)Cc2ccccc2)CC[C@H]2CC[C@@H](C(=O)NCc3ccc(F)cc3)N2C1=O [SM-401],IC50,[1]; [4],< 1 µM
same,IC50,"[2]; Homo sapiens, SK-OV-3, 96 h",< 1 µM
same,IC50,[3],< 1 µM
CN[C@@H](C)C(=O)N[C@H]1CN(C(=O)Cc2ccc(F)cc2)CC[C@H]2CC[C@@H](C(=O)NCc3ccc(F)cc3)N2C1=O [SM-402],IC50,[1]; [4],< 1 µM
same,IC50,"[2]; Homo sapiens, SK-OV-3, 96 h",< 1 µM
same,IC50,[3],< 1 µM
CN[C@@H](C)C(=O)N[C@H]1CN(C(=O)Cc2ccccc2)CC[C@H]2CC[C@@H](C(=O)NC(c3ccc(F)cc3)c3ccc(F)cc3)N2C1=O [SM-403],IC50,[1]; [4],< 1 µM
same,IC50,"[2]; Homo sapiens, SK-OV-3, 96 h",< 1 µM
same,IC50,[3],< 1 µM
CN[C@@H](C)C(=O)N[C@H]1CN(C(=O)CCc2ccc(F)cc2)CC[C@H]2CC[C@@H](C(=O)NC(c3ccc(F)cc3)c3ccc(F)cc3)N2C1=O [SM-404],IC50,[1]; [4],< 1 µM
same,IC50,"[2]; Homo sapiens, SK-OV-3, 96 h",< 1 µM
same,IC50,[3],< 1 µM
CN[C@@H](C)C(=O)N[C@H]1CN(C(=O)CC2CCCC2)CC[C@H]2CC[C@@H](C(=O)NC(c3ccccc3)c3ccccc3)N2C1=O [SM-405],IC50,[1]; [4],< 1 µM
same,IC50,"[2]; Homo sapiens, SK-OV-3, 96 h",< 1 µM
same,IC50,[3],< 1 µM
CN[C@@H](C)C(=O)N[C@H]1CN(C(=O)CCc2ccc(F)cc2)CC[C@H]2CC[C@@H](C(=O)NC(c3ccccc3)c3ccccc3)N2C1=O [SM-407],IC50,[1]; [4],< 1 µM
same,IC50,"[2]; Homo sapiens, SK-OV-3, 96 h",< 1 µM
same,IC50,[3],< 1 µM
CN[C@@H](C)C(=O)N[C@H]1CN(C(=O)CCc2ccccc2)CC[C@H]2CC[C@@H](C(=O)NC(c3ccccc3)c3ccccc3)N2C1=O [SM-408],IC50,[1]; [4],< 1 µM
same,IC50,"[2]; Homo sapiens, SK-OV-3, 96 h",< 1 µM
same,IC50,[3],< 1 µM
CCCC(=O)N1CC[C@H]2CC[C@@H](C(=O)NC(c3ccccc3)c3ccccc3)N2C(=O)[C@@H](NC(=O)[C@H](C)NC)C1 [SM-409],IC50,[1]; [4],< 1 µM
same,IC50,"[2]; Homo sapiens, SK-OV-3, 96 h",< 1 µM
same,IC50,[3],< 1 µM
CN[C@@H](C)C(=O)N[C@H]1CN(C(=O)CN2CCNC(=O)C2)CC[C@H]2CC[C@@H](C(=O)NC(c3ccccc3)c3ccccc3)N2C1=O [SM-412],IC50,[1]; [4],> 1 µM
same,IC50,"[2]; Homo sapiens, SK-OV-3, 96 h",> 1 µM
same,IC50,[3],< 10 µM
CN[C@@H](C)C(=O)N[C@H]1CN(C(=O)C[C@@H](O)C(=O)O)CC[C@H]2CC[C@@H](C(=O)NC(c3ccccc3)c3ccccc3)N2C1=O [SM-413],IC50,[1]; [4],< 100 µM
same,IC50,"[2]; Homo sapiens, SK-OV-3, 96 h",< 100 µM
same,IC50,[3],< 1 µM
CN[C@@H](C)C(=O)N[C@H]1CN(C(=O)CCn2ccnc2)CC[C@H]2CC[C@@H](C(=O)NC(c3ccccc3)c3ccccc3)N2C1=O [SM-414],IC50,[1]; [4],< 100 µM
same,IC50,"[2]; Homo sapiens, SK-OV-3, 96 h",< 100 µM
same,IC50,[3],< 1 µM
CN[C@@H](C)C(=O)N[C@H]1CN(C(=O)CC(C)(C)C)CC[C@H]2CC[C@@H](C(=O)NC(c3ccccc3)c3ccccc3)N2C1=O [SM-415],IC50,[1]; [4],< 1 µM
same,IC50,"[2]; Homo sapiens, SK-OV-3, 96 h",< 1 µM
same,IC50,[3],< 1 µM
CN[C@@H](C)C(=O)N[C@H]1CN(C(=O)C[C@H]2CC[C@H](O)C2)CC[C@H]2CC[C@@H](C(=O)NC(c3ccccc3)c3ccccc3)N2C1=O [SM-416],IC50,[1]; [4],< 10 µM
same,IC50,"[2]; Homo sapiens, SK-OV-3, 96 h",< 10 µM
same,IC50,[3],< 1 µM
CN[C@@H](C)C(=O)N[C@H]1CN(C(=O)[C@H]2CC[C@H](O)C2)CC[C@H]2CC[C@@H](C(=O)NC(c3ccccc3)c3ccccc3)N2C1=O [SM-418],IC50,[1]; [4],< 10 µM
same,IC50,"[2]; Homo sapiens, SK-OV-3, 96 h",< 10 µM
same,IC50,[3],< 1 µM
CN[C@@H](C)C(=O)N[C@H]1CN(C(=O)C[C@@H]2CCOC2)CC[C@H]2CC[C@@H](C(=O)NC(c3ccccc3)c3ccccc3)N2C1=O [SM-419],IC50,[1]; [4],< 10 µM
same,IC50,"[2]; Homo sapiens, SK-OV-3, 96 h",< 10 µM
same,IC50,[3],< 1 µM
CN[C@@H](C)C(=O)N[C@H]1CN(C(=O)CCC(C)C)CC[C@H]2CC[C@@H](C(=O)NC(c3ccccc3)c3ccccc3)N2C1=O [SM-420],IC50,[1]; [4],< 1 µM
same,IC50,"[2]; Homo sapiens, SK-OV-3, 96 h",< 1 µM
same,IC50,[3],< 1 µM
CN[C@@H](C)C(=O)N[C@H]1CN(C(=O)CCCc2ccccc2)CC[C@H]2CC[C@@H](C(=O)NC(c3ccccc3)c3ccccc3)N2C1=O [SM-421],IC50,[1]; [4],< 1 µM
same,IC50,"[2]; Homo sapiens, SK-OV-3, 96 h",< 1 µM
same,IC50,[3],< 1 µM
CN[C@@H](C)C(=O)N[C@H]1CN(C(=O)CCCC(C)C)CC[C@H]2CC[C@@H](C(=O)NC(c3ccccc3)c3ccccc3)N2C1=O [SM-422],IC50,[1]; [4],< 1 µM
same,IC50,"[2]; Homo sapiens, SK-OV-3, 96 h",< 1 µM
same,IC50,[3],< 1 µM
CN[C@@H](C)C(=O)N[C@H]1CN(C(=O)CC(C)C)CC[C@H]2CC[C@@H](C(=O)NC3CCCCC3)N2C1=O [SM-423],IC50,[1]; [4],< 100 µM
same,IC50,"[2]; Homo sapiens, SK-OV-3, 96 h",< 100 µM
same,IC50,[3],< 10 µM
CN[C@@H](C)C(=O)N[C@H]1CN(C(=O)CC(C)C)CC[C@H]2CC[C@@H](C(=O)N[C@H]3CCc4ccccc43)N2C1=O [SM-425],IC50,[1]; [4],< 10 µM
same,IC50,"[2]; Homo sapiens, SK-OV-3, 96 h",< 10 µM
same,IC50,[3],< 1 µM
CN[C@@H](C)C(=O)N[C@H]1CN(C(=O)CC(C)C)CC[C@H]2CC[C@@H](C(=O)NCc3ccc(C(F)(F)F)cc3)N2C1=O [SM-426],IC50,[1]; [4],< 10 µM
same,IC50,"[2]; Homo sapiens, SK-OV-3, 96 h",< 10 µM
same,IC50,[3],< 10 µM
